Reference: patent US12479847B2 (DANA-FARBER CANCER INSTITUTE, INC., priority 2019, dated 2025)

Tests used:
Test in all cases: KINOMEscan (ScanMAX) kinase profiling
Type in all cases: binding
panel of 468 kinases [1] = target: T1, panel of 468 kinases (Homo sapiens, UniProt Q13237); details: PRKG2; 1 μM; read-out: % control
T1 construct: purchased KINOMEscan (ScanMAX) service
T1 sequence (Q13237 1-762): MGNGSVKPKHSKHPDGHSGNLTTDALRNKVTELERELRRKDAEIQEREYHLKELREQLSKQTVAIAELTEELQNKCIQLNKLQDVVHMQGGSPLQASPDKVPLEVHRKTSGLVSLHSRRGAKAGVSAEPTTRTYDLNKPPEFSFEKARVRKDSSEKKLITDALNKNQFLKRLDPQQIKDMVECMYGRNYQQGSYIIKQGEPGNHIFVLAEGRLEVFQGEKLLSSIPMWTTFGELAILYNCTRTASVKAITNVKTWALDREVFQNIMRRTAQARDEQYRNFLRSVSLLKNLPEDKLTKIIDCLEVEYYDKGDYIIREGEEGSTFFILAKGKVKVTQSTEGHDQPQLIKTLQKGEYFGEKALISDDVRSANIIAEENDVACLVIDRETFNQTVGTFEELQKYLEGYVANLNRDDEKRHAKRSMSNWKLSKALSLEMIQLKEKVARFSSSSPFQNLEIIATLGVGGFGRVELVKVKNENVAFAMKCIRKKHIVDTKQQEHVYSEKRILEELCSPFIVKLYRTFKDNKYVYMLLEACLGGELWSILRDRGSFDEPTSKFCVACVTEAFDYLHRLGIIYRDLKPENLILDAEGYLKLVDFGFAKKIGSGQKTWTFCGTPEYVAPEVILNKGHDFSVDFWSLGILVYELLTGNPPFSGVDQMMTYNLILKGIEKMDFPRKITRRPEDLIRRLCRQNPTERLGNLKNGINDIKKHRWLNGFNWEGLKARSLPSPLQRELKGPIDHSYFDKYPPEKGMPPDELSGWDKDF

panel of 468 kinases [2] = target: T2, panel of 468 kinases (Homo sapiens, UniProt O96017); details: CHEK2; 1 μM; read-out: % control
T2 construct: purchased KINOMEscan (ScanMAX) service
T2 sequence (O96017 whole entry): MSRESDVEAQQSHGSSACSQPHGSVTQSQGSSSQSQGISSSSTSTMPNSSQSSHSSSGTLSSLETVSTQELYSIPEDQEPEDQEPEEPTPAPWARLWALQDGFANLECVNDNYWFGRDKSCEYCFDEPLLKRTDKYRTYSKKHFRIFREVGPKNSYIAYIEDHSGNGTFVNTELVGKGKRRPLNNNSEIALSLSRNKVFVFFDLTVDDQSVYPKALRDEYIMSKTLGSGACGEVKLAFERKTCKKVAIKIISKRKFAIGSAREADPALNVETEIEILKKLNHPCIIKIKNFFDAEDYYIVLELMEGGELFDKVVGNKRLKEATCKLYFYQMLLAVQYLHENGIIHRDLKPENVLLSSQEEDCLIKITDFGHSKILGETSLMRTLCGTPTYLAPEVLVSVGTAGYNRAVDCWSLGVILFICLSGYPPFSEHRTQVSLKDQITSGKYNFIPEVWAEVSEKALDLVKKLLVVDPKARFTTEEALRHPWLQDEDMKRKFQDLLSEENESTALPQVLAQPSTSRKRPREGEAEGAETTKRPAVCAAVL

panel of 468 kinases [3] = target: T3, panel of 468 kinases (Homo sapiens, UniProt P48730); details: CSNK1D; 1 μM; read-out: % control
T3 construct: purchased KINOMEscan (ScanMAX) service
T3 sequence (P48730 whole entry): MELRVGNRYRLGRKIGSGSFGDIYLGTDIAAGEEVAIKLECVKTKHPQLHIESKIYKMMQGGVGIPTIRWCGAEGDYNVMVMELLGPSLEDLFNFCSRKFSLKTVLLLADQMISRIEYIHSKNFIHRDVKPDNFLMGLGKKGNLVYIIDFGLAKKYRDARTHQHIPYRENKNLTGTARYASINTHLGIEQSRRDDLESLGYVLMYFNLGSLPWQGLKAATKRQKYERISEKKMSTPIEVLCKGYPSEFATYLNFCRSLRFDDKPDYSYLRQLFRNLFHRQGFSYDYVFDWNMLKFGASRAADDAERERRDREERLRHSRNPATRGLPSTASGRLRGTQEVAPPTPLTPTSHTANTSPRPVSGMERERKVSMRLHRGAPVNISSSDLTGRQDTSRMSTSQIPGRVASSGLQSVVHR

panel of 468 kinases [4] = target: T4, panel of 468 kinases (Homo sapiens, UniProt Q9BUB5); details: MKNK1; 1 μM; read-out: % control
T4 construct: purchased KINOMEscan (ScanMAX) service
T4 sequence (Q9BUB5 whole entry): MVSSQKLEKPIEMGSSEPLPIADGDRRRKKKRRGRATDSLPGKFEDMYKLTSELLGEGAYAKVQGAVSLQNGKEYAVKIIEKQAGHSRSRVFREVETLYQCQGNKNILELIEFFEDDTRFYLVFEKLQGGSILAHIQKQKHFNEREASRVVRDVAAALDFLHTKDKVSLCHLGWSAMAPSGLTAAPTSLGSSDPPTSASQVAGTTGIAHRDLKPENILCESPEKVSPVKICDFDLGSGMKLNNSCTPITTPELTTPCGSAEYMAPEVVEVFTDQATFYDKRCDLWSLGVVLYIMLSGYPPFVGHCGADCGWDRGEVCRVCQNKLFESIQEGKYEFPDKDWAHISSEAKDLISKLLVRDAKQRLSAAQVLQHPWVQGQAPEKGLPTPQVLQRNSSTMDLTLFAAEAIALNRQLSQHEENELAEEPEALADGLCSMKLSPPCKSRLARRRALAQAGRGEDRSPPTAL

panel of 468 kinases [5] = target: T5, panel of 468 kinases (Homo sapiens, UniProt P07948); details: LYN; 1 μM; read-out: % control
T5 construct: purchased KINOMEscan (ScanMAX) service
T5 sequence (P07948 whole entry): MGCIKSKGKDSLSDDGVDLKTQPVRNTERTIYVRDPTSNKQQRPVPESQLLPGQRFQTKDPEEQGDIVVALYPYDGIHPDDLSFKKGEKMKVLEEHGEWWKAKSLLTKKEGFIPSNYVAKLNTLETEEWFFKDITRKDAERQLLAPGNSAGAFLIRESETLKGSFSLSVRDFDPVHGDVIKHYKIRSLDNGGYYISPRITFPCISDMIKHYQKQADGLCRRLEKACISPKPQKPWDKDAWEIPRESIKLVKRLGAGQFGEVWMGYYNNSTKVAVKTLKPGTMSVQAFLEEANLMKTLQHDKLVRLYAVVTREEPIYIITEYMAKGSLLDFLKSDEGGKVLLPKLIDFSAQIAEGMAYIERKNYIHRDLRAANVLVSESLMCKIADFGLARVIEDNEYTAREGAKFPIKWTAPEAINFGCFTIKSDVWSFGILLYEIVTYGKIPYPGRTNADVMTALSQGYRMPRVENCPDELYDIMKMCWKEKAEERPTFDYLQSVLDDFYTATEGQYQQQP

panel of 468 kinases [6] = target: T6, panel of 468 kinases (Homo sapiens, UniProt P23443); details: S6K1; 1 μM; read-out: % control
T6 construct: purchased KINOMEscan (ScanMAX) service
T6 sequence (P23443 whole entry): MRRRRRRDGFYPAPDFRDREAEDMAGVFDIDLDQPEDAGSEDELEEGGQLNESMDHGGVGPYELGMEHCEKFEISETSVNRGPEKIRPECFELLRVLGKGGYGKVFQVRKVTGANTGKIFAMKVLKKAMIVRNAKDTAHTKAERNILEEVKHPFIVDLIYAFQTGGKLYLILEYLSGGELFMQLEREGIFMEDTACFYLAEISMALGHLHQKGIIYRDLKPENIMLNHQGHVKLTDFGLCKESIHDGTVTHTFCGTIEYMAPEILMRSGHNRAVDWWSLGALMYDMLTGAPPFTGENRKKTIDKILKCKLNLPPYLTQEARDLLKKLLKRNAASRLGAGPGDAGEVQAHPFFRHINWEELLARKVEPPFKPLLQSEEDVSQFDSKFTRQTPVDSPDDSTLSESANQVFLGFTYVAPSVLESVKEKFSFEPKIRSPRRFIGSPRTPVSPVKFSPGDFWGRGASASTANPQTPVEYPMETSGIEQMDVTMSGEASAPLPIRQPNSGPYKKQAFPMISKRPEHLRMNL

panel of 468 kinases [7] = target: T7, panel of 468 kinases (Homo sapiens, UniProt Q56UN5); details: YSK4; 1 μM; read-out: % control
T7 construct: purchased KINOMEscan (ScanMAX) service
T7 sequence (Q56UN5 1-1328): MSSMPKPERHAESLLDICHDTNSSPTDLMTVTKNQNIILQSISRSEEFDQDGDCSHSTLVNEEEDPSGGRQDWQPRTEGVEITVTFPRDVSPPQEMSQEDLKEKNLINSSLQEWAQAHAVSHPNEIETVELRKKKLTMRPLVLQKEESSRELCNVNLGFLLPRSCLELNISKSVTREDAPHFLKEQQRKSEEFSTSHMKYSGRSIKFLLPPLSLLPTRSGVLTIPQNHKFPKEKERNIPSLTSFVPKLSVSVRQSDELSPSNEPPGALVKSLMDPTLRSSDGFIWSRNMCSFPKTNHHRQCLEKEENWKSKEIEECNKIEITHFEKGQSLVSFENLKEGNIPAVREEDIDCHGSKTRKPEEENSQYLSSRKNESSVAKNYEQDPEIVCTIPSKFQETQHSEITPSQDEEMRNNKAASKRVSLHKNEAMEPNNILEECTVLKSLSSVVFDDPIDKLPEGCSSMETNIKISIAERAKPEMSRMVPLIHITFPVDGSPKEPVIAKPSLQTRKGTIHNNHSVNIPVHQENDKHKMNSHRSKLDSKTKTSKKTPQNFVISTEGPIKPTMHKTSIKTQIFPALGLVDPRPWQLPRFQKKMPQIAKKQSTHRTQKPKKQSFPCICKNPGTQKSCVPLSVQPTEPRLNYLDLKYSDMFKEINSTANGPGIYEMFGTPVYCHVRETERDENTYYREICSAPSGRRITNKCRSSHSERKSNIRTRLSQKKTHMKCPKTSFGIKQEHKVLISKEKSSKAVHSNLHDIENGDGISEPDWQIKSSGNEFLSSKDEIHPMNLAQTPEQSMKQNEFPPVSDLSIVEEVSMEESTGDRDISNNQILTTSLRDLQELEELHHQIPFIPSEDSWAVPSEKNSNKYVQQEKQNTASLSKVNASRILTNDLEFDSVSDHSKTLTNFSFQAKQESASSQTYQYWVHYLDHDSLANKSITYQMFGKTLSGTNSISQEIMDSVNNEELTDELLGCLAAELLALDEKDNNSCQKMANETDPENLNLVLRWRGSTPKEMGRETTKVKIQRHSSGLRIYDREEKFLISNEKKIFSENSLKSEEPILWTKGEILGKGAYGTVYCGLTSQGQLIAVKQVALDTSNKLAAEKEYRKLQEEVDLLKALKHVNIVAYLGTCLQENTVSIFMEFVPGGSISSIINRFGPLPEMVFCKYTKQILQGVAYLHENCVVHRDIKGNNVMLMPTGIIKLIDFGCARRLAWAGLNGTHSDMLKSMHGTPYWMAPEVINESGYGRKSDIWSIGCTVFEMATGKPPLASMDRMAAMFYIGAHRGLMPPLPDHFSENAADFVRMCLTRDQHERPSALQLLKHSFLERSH

Row | SMILES | remaining binding at 1 µM (panel of 468 kinases [1]) | remaining binding at 1 µM (panel of 468 kinases [2]) | remaining binding at 1 µM (panel of 468 kinases [3]) | remaining binding at 1 µM (panel of 468 kinases [4]) | remaining binding at 1 µM (panel of 468 kinases [5]) | remaining binding at 1 µM (panel of 468 kinases [6]) | remaining binding at 1 µM (panel of 468 kinases [7])
1 | CNc1nc(Nc2ccc(S(=O)(=O)N3CCC(N4CCOCC4)CC3)cc2OC)nc2[nH]cc(Cl)c12 [Compound 12, 5-chloro-N2-(2-methoxy-4-((4-morpholinopiperidin-1-yl)sulfonyl)phenyl)-N4-methyl-7H-pyrrolo[2,3-d]pyrimidine-2,4-diamine] | 100% | 1.8% | 9.5% | 100% | 100% | 100% | 59%
2 | CNc1nc(Nc2ccc(C(=O)N3CCC(N4CCOCC4)CC3)c3c2OCO3)nc2[nH]cc(Cl)c12 [Compound 75, (7-((5-chloro-4-(methylamino)-7H-pyrrolo[2,3-d]pyrimidin-2-yl)amino)benzo[d][1,3]dioxol-4-yl)(4-morpholinopiperidin-1-yl)methanone] | 100% | 0.95% | 15% | 100% | 100% | 63% | 0.25%
3 | CNc1nc(Nc2ccc(P3(=O)CCN(C4CCOCC4)CC3)cc2OC)nc2[nH]cc(Cl)c12 [Compound 77, 4-(4-((5-chloro-4-(methylamino)-7H-pyrrolo[2,3-d]pyrimidin-2-yl)amino)-3-methoxyphenyl)-1-(tetrahydro-2H-pyran-4-yl)-1,4-azaphosphinane 4-oxide] | 100% | 0.7% | 8.9% | 100% | 100% | 98% | 4.2%
